Measurements as given in ChEMBL document CHEMBL1157614, “5-Cyclic amine-3-arylsulfonylindazoles as novel 5-HT6 receptor antagonists” (J Med Chem, 2010).
Values after ≈ are worked out from the molar mass of the structure shown. Active and inactive are the calls of the source. No cut-off for these calls is given here.

Legend:
[1] = biological target: T1, 5-hydroxytryptamine receptor 2B (Homo sapiens, UniProt P41595); assay: Antagonist activity at human 5HT2B receptor expressed in CHO cells assessed as intracellular cAMP formation by RIA; type: functional, cell-based
T1 sequence (P41595 whole entry): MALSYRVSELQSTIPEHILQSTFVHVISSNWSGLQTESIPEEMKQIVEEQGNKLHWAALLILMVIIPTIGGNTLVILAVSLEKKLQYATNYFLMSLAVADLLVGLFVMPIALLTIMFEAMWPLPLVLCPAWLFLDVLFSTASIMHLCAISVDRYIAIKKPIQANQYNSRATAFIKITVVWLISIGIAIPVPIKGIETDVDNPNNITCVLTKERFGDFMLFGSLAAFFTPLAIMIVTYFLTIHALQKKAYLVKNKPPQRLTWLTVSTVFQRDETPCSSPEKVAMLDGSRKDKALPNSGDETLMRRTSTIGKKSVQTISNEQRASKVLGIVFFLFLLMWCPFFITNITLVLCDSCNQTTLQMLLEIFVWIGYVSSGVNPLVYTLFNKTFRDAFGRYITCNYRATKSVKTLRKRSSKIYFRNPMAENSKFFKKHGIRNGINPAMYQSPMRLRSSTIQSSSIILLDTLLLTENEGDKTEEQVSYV

[2] = biological target: T1, 5-hydroxytryptamine receptor 2B; assay: Displacement of [3H]5HT from human 5HT2B receptor expressed in CHO cells by scintillation counting; type: cell-based
[3] = biological target: T2, 5-hydroxytryptamine receptor 6 (Homo sapiens, UniProt P50406); assay: Antagonist activity at human cloned 5HT6 receptor expressed in human HeLa cells assessed as intracellular cAMP formation by RIA; type: functional, cell-based
T2 sequence (P50406 whole entry): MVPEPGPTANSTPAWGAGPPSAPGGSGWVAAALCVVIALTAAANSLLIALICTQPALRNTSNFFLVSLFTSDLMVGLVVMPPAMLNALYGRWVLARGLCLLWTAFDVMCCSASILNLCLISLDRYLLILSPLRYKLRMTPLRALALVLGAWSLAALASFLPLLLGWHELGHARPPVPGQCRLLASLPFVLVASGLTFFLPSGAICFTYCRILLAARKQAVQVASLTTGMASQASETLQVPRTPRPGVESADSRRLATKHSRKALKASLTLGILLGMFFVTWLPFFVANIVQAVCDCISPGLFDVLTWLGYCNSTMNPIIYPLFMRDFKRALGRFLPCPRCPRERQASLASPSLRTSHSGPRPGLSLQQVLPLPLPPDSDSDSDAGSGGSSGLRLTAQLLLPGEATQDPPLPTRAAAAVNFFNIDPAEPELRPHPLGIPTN

[4] = biological target: T2, 5-hydroxytryptamine receptor 6; assay: Displacement of [3H]LSD from human 5HT6 receptor by scintillation counting
[5] = biological target: T1, 5-hydroxytryptamine receptor 2B; assay: Agonist activity at human 5HT2B receptor expressed in CHO cells assessed as intracellular cAMP formation by RIA; type: functional, cell-based
[6] = Solubility at pH 7.4; type: physicochemical; details: buffer
CYP2C9 = CYP2C9 (Homo sapiens, UniProt P11712); assay: Inhibition of CYP2C9 at 3 uM; type: ADME
Chain of CYP2C9 (P11712 whole entry): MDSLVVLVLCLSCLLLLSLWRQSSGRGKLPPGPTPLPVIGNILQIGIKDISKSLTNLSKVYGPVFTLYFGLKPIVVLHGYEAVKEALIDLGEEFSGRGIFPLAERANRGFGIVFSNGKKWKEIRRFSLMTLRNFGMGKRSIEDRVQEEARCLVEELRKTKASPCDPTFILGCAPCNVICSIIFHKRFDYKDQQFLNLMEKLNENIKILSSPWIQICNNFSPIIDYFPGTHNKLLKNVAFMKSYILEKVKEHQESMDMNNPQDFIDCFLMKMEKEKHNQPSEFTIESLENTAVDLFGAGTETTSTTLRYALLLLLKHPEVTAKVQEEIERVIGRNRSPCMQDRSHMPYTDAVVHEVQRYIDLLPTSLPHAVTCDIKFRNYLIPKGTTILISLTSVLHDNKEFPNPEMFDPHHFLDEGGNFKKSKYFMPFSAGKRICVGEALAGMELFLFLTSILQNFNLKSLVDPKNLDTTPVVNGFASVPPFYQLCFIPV

CYP3A4 = CYP3A4 (Homo sapiens, UniProt P08684); assay: Inhibition of CYP3A4 at 3 uM; type: ADME
Chain of CYP3A4 (P08684 whole entry): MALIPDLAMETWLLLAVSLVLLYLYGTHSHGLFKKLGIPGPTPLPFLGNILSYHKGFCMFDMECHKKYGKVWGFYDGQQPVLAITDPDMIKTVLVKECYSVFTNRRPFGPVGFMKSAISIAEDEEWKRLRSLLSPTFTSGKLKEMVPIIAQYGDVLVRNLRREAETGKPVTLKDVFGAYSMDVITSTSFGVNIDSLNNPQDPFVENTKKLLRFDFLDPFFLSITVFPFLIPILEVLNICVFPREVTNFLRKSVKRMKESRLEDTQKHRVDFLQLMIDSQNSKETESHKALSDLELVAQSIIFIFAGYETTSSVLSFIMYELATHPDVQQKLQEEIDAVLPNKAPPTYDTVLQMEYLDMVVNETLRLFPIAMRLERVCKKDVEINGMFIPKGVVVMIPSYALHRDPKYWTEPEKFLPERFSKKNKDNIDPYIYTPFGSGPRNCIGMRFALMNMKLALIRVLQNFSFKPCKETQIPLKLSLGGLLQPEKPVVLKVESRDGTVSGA

[7] = biological target: 5-hydroxytryptamine receptor 1D (Homo sapiens, UniProt P28221); assay: Binding affinity to 5HT1D receptor
Chain of 5-hydroxytryptamine receptor 1D (P28221 whole entry): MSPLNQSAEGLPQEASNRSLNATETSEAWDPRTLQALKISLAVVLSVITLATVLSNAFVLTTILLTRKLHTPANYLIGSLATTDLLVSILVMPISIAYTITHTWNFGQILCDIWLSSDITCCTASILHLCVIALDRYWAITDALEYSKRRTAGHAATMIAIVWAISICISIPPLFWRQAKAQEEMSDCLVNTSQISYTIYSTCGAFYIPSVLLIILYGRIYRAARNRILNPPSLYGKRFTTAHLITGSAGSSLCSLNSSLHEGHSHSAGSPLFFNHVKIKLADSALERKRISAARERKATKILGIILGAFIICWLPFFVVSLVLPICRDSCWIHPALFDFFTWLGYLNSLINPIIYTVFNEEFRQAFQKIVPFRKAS

Rattus norvegicus [8] = assay: Permeability across blood brain barrier in Long-Evans rat at 10 mg/kg, ip administered as single dose; type: ADME, organism-based; parameters: dose 10 mg/kg, route intraperitoneal; details: in vivo
[9] = biological target: 5-hydroxytryptamine receptor 1B (Homo sapiens, UniProt P28222); assay: Binding affinity to 5HT1B receptor
Chain of 5-hydroxytryptamine receptor 1B (P28222 whole entry): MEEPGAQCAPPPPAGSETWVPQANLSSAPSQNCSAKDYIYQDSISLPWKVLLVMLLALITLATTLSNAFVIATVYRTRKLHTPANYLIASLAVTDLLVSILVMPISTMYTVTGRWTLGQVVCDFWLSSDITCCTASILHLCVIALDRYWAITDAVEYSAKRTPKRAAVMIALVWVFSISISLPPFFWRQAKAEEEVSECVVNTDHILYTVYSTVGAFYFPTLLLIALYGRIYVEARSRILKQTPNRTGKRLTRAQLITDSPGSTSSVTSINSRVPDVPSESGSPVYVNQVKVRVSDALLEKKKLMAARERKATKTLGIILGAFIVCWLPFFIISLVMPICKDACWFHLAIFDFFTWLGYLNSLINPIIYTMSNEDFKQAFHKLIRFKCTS

[10] = biological target: T3, 5-hydroxytryptamine receptor 1A (Homo sapiens, UniProt P08908); assay: Binding affinity to 5HT1A receptor
T3 sequence (P08908 whole entry): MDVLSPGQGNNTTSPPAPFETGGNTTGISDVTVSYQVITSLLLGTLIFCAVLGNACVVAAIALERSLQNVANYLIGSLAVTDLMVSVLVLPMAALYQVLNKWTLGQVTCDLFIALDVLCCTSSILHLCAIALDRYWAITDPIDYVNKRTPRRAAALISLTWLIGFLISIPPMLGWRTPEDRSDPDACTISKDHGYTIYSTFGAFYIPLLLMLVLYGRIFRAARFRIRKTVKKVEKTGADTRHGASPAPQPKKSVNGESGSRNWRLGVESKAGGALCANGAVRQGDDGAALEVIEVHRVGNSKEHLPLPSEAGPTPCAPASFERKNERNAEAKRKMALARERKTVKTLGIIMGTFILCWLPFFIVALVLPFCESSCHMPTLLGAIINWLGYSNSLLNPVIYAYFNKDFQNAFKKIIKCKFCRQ

[11] = biological target: T4, Alpha-2A adrenergic receptor (Homo sapiens, UniProt P08913); assay: Binding affinity to alpha2A adrenergic receptor
T4 sequence (P08913 whole entry): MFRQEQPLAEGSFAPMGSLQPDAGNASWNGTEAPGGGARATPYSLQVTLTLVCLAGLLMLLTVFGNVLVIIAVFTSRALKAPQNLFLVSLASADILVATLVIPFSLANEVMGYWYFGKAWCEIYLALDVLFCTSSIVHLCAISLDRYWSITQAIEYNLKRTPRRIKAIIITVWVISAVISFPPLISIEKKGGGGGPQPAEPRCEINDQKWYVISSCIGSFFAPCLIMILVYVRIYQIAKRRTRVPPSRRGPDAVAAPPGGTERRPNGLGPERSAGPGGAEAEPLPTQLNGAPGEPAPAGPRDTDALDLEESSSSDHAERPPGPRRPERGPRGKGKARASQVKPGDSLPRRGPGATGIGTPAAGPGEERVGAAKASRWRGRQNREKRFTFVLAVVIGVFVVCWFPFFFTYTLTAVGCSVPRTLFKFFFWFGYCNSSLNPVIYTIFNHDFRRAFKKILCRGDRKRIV

hERG (KCNH2) = hERG (KCNH2) (Homo sapiens, UniProt Q12809); assay: Inhibition of human ERG at 10 uM
Chain of hERG (KCNH2) (Q12809 whole entry): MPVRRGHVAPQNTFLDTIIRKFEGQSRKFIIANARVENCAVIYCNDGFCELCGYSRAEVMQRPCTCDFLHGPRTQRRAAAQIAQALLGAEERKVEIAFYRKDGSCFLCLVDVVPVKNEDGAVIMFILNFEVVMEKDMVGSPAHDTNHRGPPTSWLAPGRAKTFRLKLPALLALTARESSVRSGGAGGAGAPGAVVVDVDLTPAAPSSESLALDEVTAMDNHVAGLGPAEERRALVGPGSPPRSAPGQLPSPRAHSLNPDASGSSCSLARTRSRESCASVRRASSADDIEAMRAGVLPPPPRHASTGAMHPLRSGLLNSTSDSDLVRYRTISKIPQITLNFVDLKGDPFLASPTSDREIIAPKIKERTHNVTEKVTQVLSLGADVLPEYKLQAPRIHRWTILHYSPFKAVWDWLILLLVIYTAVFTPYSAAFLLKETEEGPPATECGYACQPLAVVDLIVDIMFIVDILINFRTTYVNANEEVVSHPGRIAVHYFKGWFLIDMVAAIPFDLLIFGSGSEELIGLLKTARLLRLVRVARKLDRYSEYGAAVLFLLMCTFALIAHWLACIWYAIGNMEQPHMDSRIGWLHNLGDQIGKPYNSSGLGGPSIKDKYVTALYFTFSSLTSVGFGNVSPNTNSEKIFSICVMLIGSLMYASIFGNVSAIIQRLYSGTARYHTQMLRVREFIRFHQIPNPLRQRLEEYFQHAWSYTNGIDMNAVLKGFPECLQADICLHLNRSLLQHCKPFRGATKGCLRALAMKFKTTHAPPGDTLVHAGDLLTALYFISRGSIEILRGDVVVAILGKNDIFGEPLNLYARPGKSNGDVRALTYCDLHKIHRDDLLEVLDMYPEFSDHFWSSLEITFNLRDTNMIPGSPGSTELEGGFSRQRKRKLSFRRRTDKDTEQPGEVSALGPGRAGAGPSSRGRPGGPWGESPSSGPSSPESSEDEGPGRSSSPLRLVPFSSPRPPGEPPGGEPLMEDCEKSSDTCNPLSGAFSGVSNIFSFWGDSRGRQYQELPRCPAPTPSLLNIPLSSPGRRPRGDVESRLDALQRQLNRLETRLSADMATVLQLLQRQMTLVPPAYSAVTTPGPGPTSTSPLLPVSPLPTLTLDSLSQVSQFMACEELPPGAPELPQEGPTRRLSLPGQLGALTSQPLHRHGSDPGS

[12] = Half life in rat microsomes; type: ADME, Microsome
D(2) dopamine receptor = D(2) dopamine receptor (Homo sapiens, UniProt P14416); assay: Binding affinity to dopamine D2 receptor
Chain of D(2) dopamine receptor (P14416 whole entry): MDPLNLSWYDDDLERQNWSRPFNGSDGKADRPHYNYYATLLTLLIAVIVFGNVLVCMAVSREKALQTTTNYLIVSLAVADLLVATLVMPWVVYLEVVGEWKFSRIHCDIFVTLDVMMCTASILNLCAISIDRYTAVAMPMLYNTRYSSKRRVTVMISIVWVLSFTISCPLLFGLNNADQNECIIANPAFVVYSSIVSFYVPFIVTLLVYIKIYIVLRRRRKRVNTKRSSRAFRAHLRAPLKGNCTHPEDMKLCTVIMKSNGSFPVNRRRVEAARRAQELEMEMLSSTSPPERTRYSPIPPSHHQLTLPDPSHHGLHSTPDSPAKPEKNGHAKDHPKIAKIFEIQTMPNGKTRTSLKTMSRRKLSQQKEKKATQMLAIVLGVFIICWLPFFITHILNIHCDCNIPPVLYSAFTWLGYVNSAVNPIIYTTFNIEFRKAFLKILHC

CYP2D6 = CYP2D6 (Homo sapiens, UniProt P10635); assay: Inhibition of CYP2D6 at 3 uM; type: ADME
Chain of CYP2D6 (P10635 whole entry): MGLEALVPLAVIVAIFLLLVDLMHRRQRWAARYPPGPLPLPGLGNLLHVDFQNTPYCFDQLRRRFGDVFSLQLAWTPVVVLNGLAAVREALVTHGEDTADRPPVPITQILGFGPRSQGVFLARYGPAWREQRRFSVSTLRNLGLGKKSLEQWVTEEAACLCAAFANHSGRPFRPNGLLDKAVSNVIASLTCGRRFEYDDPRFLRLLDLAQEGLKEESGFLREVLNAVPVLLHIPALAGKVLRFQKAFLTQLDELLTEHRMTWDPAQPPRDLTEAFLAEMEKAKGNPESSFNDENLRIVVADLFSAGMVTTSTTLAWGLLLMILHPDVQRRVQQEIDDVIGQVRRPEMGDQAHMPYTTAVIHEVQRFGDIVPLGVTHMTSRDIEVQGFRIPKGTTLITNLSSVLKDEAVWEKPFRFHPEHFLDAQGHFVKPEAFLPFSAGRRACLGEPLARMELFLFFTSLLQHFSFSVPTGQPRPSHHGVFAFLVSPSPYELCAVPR

[13] = Permeability at pH 7.4 by PAMPA; type: ADME; details: read-out: permeability
Rattus norvegicus [14] = assay: Cognitive enhancing effect in Long-Evans rat assessed as improvement of recognition memory at 3 mg/kg, ip administered 1 hr prior to learning trial measured after 48 hrs during testing trial by novel object recognition test; type: functional, organism-based; parameters: dose 3 mg/kg

Activity [1] | Ki [2] [nM] | IC50 [3] [nM] | Ki [4] [nM] | Activity [5] | SMILES | also measured
Active | 260 | 433 | 75.8 | inactive | CC(C)Cn1nc2ccc(N3CC[C@@H](N)C3)cc2c1S(=O)(=O)c1cccc2ccccc12 | 
Active | 442 | 33.7 |  | inactive | NC1CCN(c2ccc3[nH]nc(S(=O)(=O)c4cccc(Cl)c4)c3c2)CC1 | 
Active | 274 |  |  | inactive | N[C@@H]1CCN(c2ccc3[nH]nc(S(=O)(=O)c4cccc5ccccc45)c3c2)C1 | solubility [6]: 63 µg/mL (≈ 161 µM); inhibition at 3 µM (CYP2C9): 73%; inhibition at 3 µM (CYP3A4): 88%; Ki [7]: 2270 nM; pBBB (Rattus norvegicus [8]): 11 ×10⁻⁶ cm/s; Ki [9]: 6040 nM; Ki [10]: 4730 nM; Ki [11]: > 10000 nM; inhibition at 10 µM (hERG (KCNH2)): 14%; half-life [12]: 20 min; Ki (D(2) dopamine receptor): 2910 nM; inhibition at 3 µM (CYP2D6): 7%; Papp [13]: 0.19 ×10⁻⁶ cm/s
Active | 100 |  |  | inactive | NC1CCN(c2ccc3[nH]nc(S(=O)(=O)c4cccc5ccccc45)c3c2)CC1 | 
Active | 583 | 17.5 | 24.4 | inactive | CN(C)[C@H]1CCN(c2ccc3[nH]nc(S(=O)(=O)c4cccc5ccccc45)c3c2)C1 | 
Active | 455 | 444 | 54.3 | inactive | Cn1nc2ccc(N3CC[C@@H](N)C3)cc2c1S(=O)(=O)c1cccc2ccccc12 | 
Active | 1360 | 88.9 | 18.2 | inactive | NC1CCN(c2ccc3[nH]nc(S(=O)(=O)c4ccc5ccccc5c4)c3c2)CC1 | 
Active | 97.9 | 16.5 | 3.55 | inactive | NC1CN(c2ccc3[nH]nc(S(=O)(=O)c4cccc5ccccc45)c3c2)C1 | 
Active | 185 | 316 |  | inactive | Cn1nc(S(=O)(=O)c2cccc3ccccc23)c2cc(N3CC[C@@H](N)C3)ccc21 | 
Active | 423 | 39.6 | 0.51 | inactive | CN(C)[C@@H]1CCN(c2ccc3[nH]nc(S(=O)(=O)c4cccc5ccccc45)c3c2)C1 | 
Active | > 10000 | 51.7 | 13.1 | inactive | CC(C)c1ccc(S(=O)(=O)c2n[nH]c3ccc(N4CCC(N)CC4)cc23)cc1 | 
Active | 21 |  |  | inactive | N[C@H]1CCN(c2ccc3[nH]nc(S(=O)(=O)c4cccc5ccccc45)c3c2)C1 | 
Active | > 3300 | 203 |  | inactive | CC(C)Cn1nc(S(=O)(=O)c2cccc3ccccc23)c2cc(N3CC[C@@H](N)C3)ccc21 | 
Active | 78 | 70.1 | 4.52 | inactive | NC1CCN(c2ccc3[nH]nc(S(=O)(=O)c4cccc5c(Cl)cccc45)c3c2)CC1 | 
Active | 191 | 157 |  | inactive | CC(C)n1nc(S(=O)(=O)c2cccc3ccccc23)c2cc(N3CC[C@@H](N)C3)ccc21 | Activity (Rattus norvegicus [14]): Active
Active | > 3300 | 380 | 48.7 | inactive | CC(C)n1nc2ccc(N3CC[C@@H](N)C3)cc2c1S(=O)(=O)c1cccc2ccccc12 | 

SMILES | Activity [1] | Ki [2] [nM] | IC50 [3] [nM] | Ki [4] [nM] | Activity [5] | also measured
Cc1ccc(S(=O)(=O)c2n[nH]c3ccc(N4CCC(N)CC4)cc23)c2ccccc12 | Active | 493 | 26.7 | 3.62 | inactive | 
